The values below come from patent US6500431B1, “Inhibitors of angiogenesis and tumor growth” (University of Southern California, priority 1998, dated 2002).

No end group written: not given here.

What all share (type): cell-based
The test system of one experiment is endothelial cells. As to the kind of experiment: Endothelial cell migration assay, fibronectin-coated transwell. As to conditions: chemotaxis induced by VEGF or bFGF. Here is the method:
(§1) The assays were done in double chamber wells separated by […] membrane. Chemotaxis was induced by bFGF (25 ng/mL) in the lower chamber. Endothelial cells or KS cells (5×10^4/mL) were placed in the upper chamber in the presence and absence of test polypeptides. Taxol at 10 ng/mL was used as a known inhibitor of migration. Cell migration across the membrane was quantitated after an overnight incubation.
Angiogenesis is mediated by complex biochemical processes including degradation of the basement membrane under existing blood vessel endothelial cells, followed by proliferation and migration of endothelial cells, followed by formation of capillary loops, and recruitment of vascular smooth muscle cells to encase the newly formed vessels and provide stability. […]
Briefly, wells were coated with fibronectin (25 μg/mL) overnight, and endothelial cells or KS cells were plated in the upper chamber with 100 μL of DMEM/0.4% FCS. […] The plates were incubated for 5 hr at 37° C. and the cells crossing the fibronectin-coated membrane were counted after wiping the cells off the membrane in the upper chamber with a cotton swab.
The cells that traversed the membrane were fixed with Diff-Quik stain according to the manufacturer's instruction (Dade Diagnostics Inc., Aguada, PR). The cells were counted under a microscope at 320× in four randomly selected fields. […]

For experiment [1], the system named is KS Y-1 cells. As to the kind of experiment: KS Y-1 cell proliferation assay (MTT). The settings on record: concentration not printed, 5 days, MTT. The protocol: (§2) To determine if Saposin B polypeptides had anti-angiogenic activity, a series of overlapping polypeptides were synthesized and tested in the KS Y-1 cell proliferation assay. The overlapping polypeptides are SEQ ID NOS:13 though 42. Cell Proliferation assays in either KS cells or fibroblast. Cells were plated in 48 well plates at equal numbers in appropriate culture medium. Cells were treated with the test compounds at various concentrations on day one, and on day 3. MTT was done on day 5. KS cells were used to represent the activated endothelial cells, while fibroblast cells represent the control cells. The results are remarkable for the lack of toxicity to the fibroblast relative to the activated endothelial cells/KS cells.

Experiment [2] relates to KS Y-1 cells. Description: KS cell migration assay, fibronectin-coated transwell. The settings on record: 50,000 KS Y-1 cells/well, 25 ng/mL bFGF, overnight. Here is the method:
as §1
Angiogenesis is mediated by complex biochemical processes including degradation of the basement membrane under existing blood vessel endothelial cells, followed by proliferation and migration of endothelial cells, followed by formation of capillary loops, and recruitment of vascular smooth muscle cells to encase the newly formed vessels and provide stability. KS and endothelial cell migration in the presence of Saposin B was studied in transwell culture plates with 8 μm pore membranes (Costar, Cambridge, Mass.).
Briefly, wells were coated with fibronectin (25 μg/mL) overnight, and endothelial cells or KS cells were plated in the upper chamber with 100 μL of DMEM/0.4% FCS. 500 μL of DMEM/0.4% FCS was added to the lower chamber and incubated at 37° C. for one hour. The test polypeptides, at various concentrations, were added to the upper chamber, and chemotactic agents (VEGF or bFGF at 20 ng/mL) were added to the lower cell-culture chambers. The plates were incubated for 5 hr at 37° C. and the cells crossing the fibronectin-coated membrane were counted after wiping the cells off the membrane in the upper chamber with a cotton swab.
The cells that traversed the membrane were fixed with Diff-Quik stain according to the manufacturer's instruction (Dade Diagnostics Inc., Aguada, PR). The cells were counted under a microscope at 320× in four randomly selected fields. The experiments were done in duplicate and repeated at least three times.

For the next experiment, the system named is T1 cells. As to the kind of experiment: Fibroblast proliferation assay (MTT). As to conditions: 5000 T1 cells/well, 7 days. The protocol: as §2, with “MTT was done on day 5.” left out
The nature of experiment [3]: Activity of truncated recombinant Saposin B (FIG. 1C). As to conditions: cell type not given. From the text: FIG. 1C: Activity of truncated recombinant Saposin B. Saposin (Sap) B 1-69 (consisting of the first 69 amino acids), Sap B 1-42 (consisting of the first 42 amino acids), Sap B 11-81 (consisting of 11-81 amino acids and thus lacking the first 10 amino acids).

The test system of experiment [4] is endothelial cells (HUVEC). As to the kind of experiment: Growth inhibition of endothelial cells. The settings on record: Saposin C: highest concentration tested 50 μg/mL. The protocol: FIG. 1D: Activity of n-terminus decapeptide (DVCQDCIQMV; SEQ ID NO 21).
FIG. 1E: Activity of N-terminus pentapeptide (DVCQC; SEQ ID NO: 28).
(§3) By SDS-PAGE, the bacterial product was smaller than the eukaryotic protein. Because prokaryotically expressed proteins are not glycosylated, the difference in molecular weights probably represents the presence of carbohydrate in the eukaryotic protein. Recombinant proteins were then tested in KS, endothelial and control cell lines. Activity was found only in KS cell lines and endothelial cells.

The subject of a further experiment is KS cell lines. Description: Activity of recombinant Prosaposin chains on growth of KS cell lines. As to conditions: Saposin C: highest concentration tested 50 μg/mL.
Description: In order to determine whether recombinant Saposin B has anti-angiogenic activity, the coding region of each of the Prosaposin chains was amplified from fibroblast cell lines and cloned into both bacterial (pGEX-KG) and eukaryotic (pcDNA 3.1His A) expression vectors.
The PCR products were digested with the respective restriction enzymes and the restriction products were inserted into the pGEX-KG vector for bacterial expression. pGEX-KG vector comprises a glutathione S transferase (GST)-tag at the […] of the insertion site so that a GST-fusion protein is expressed. The GST-tag is used to aid in purification of the recombinant protein. After elution from a glutathione-Sepharose 4B column, the GST-tagged proteins were incubated with thrombin (4 μg/ml) for 4 hr at room temperature (22-25° C.) in 50 mM Tris, pH 8.3, 3 mM CaCl2, 150 mM NaCl to cleave GST from the fusion protein. Free GST was removed from the preparation by passing the digested fusion protein through the glutathione-Sepharose 4B column.
as §3

In the case of `CC(=O)O[C@H]1C(=O)[C@@]2(C)[C@H]([C@H](OC(=O)c3ccccc3)[C@]3(O)C[C@H](OC(=O)[C@H](O)[C@@H](NC(=O)c4ccccc4)c4ccccc4)C(C)=C1C3(C)C)[C@]1(OC(C)=O)CO[C@@H]1C[C@@H]2O` [paclitaxel, reference compound], the “inhibition of endothelial cell migration” value in the experiment with endothelial cells is “did not completely inhibit”.
With GDVCQDCIQMV [SEQ ID NO:19], the “Cell Proliferation Activity (% of control), KSY-1” value in the experiment with KS Y-1 cells [1] (first of two KSY-1 value columns) is 28 % of control; in the experiment on KS Y-1 cells [1] (second of two KSY-1 value columns), 8 % of control. Further, the “% Cells Migrating Through Membrane (of Control)” value in the experiment with KS Y-1 cells [2] (1 μg/mL) was 78.23 % (of Control); in the experiment on KS Y-1 cells [2] (50 μg/mL), 20.98 % (of Control); in the experiment with KS Y-1 cells [2], 40.32 % (of Control). For the same molecule, the entries for the “Fibroblast Proliferation, % of Control” value in the experiment on T1 cells (1 μg/mL), in the experiment on T1 cells (10 μg/mL) and in the experiment with T1 cells (50 μg/mL) were 91.3 % of Control, 91.3 % of Control and 82.6 % of Control, respectively.
For the molecule “Sap B 1-42: truncated recombinant Saposin B consisting of the first 42 amino acids (GDVCQDCIQMVTDIQTAVRTNSTFVQALVEHVKEECDRLGPG; ends and bridges not checked; cysteine pairing not given here; UniProt P07602 195-236, looked up, fragment)”, the “growth inhibition by truncated recombinant Saposin B” value in experiment [3] is “dose dependent growth inhibition”.

B1: Prosaposin: 70 kD glycoprotein, precursor of Saposin A, B, C and D; naturally occurring full-length (protein, listed as Homo sapiens)
chain: MYALFLLASLLGAALAGPVLGLKECTRGSAVWCQNVKTASDCGAVKHCLQTVWNKPTVKSLPCDICKDVVTAAGDMLKDNATEEEILVYLEKTCDWLPKPNMSASCKEIVDSYLPVILDIIKGEMSRPGEVCSALNLCESLQKHLAELNHQKQLESNKIPELDMTEVVAPFMANIPLLLYPQDGPRSKPQPKDNGDVCQDCIQMVTDIQTAVRTNSTFVQALVEHVKEECDRLGPGMADICKNYISQYSEIAIQMMMHMQPKEICALVGFCDEVKEMPMQTLVPAKVASKNVIPALELVEPIKKHEVPAKSDVYCEVCEFLVKEVTKLIDNNKTEKEILDAFDKMCSKLPKSLSEECQEVVDTYGSSILSILLEEVSPELVCSMLHLCSGTRLPALTVHVTQPKDGGFCEVCKKLVGYLDRNLEKNSTKQEILAALEKGCSFLPDPYQKQCDQFVAEYEPVLIEILVEVMDPSFVCLKIGACPSAHKPLLGTEKCIWGPSYWCQNTETAAQCNAVEHCKRHVWN
modifications: prosaposin
notes: 70 kD glycoprotein, precursor of Saposin A, B, C and D; naturally occurring full-length
On to B1, for which the “activity against endothelial cells” value in experiment [4] is given as “no activity”. In addition, the “activity against KS cell lines” value in the experiment on KS cell lines is “no activity”.
